Measurements from US10611731B2, “5-methyl-6-phenyl-4,5-dihydro-2H-pyridazin-3-one derivative” (OTSUKA PHARMACEUTICAL CO., LTD., priority 2016, dated 2020).

tested on: human childhood brain tumor cell lines (PFSK-1); assay: Growth inhibitory activity against PFSK-1 cells (WST-8, Cell Counting Kit-8); format: cell-based; settings: Homo sapiens, 72 h, 3 days incubation with test compound, WST-8 OD 450/630 nm, read-out: IC50 (concentration inhibiting 50% of the cell growth)
Method: The growth inhibitory activity against human childhood brain tumor cell lines (PFSK-1) was measured with WST-8 reagent [2-(2-methoxy-4-nitrophenyl)-3-(4-nitrophenyl)-5-(2,4-disulfophenyl)-2H-tetrazolium monosodium salt, Cell Counting Kit-8™], according to the method described in Tominaga, H. et al., Anal. Commun., 1999, 36, 47-50. Briefly, PFSK-1 was seeded in 96-well microplate at 100 μL/well with Roswell Park Memorial Institute (RPMI) 1640 medium containing 10% fetal bovine serum (FBS), and the cells were incubated in the presence of 5% carbon dioxide (CO2) at 37° C. for 24 hours. 50 μL of each test compound diluted with the medium was added to each well, and then the cells were incubated further for 3 days. After the incubation, 15 μL of Cell Counting Kit-8™ was added to each well, and the cells were incubated for one and half hours. Then, optical density (OD) values at measurement wavelength 450 nm and reference wavelength 630 nm were measured and the difference thereof was calculated. From the calculated difference, the OD value difference (at measurement wavelength 450 nm and reference wavelength 630 nm) of the control well which includes no cell was subtracted to afford cell-growth activity in each well.
The cell growth inhibitory activity of each test compound was calculated by comparing the cell-growth activity with each test compound to the cell-growth activity without any test compound (control), and each IC50 (nM) which is the concentration inhibiting 50% of the cell growth was calculated.

| SMILES | IC50 |
| --- | --- |
| Cc1cc(C2=NNC(=O)CC2C)cc(Cl)c1OCC1(O)CC1 (stereo not drawn) [Example 44, 6-{3-chloro-4-[(1-hydroxycyclopropyl)methoxy]-5-methylphenyl}-5-methyl-4,5-dihydro-2H-pyridazin-3-one] | 1 nM |
| Cc1cc(C2=NNC(=O)CC2C)cc(F)c1OCC1(O)CC1 (stereo not drawn) [Example 45, 6-{3-Fluoro-4-[(1-hydroxycyclopropyl)methoxy]-5-methylphenyl}-5-methyl-4,5-dihydro-2H-pyridazin-3-one] | 7.2 nM |
| Cc1c(OCC2(O)CC2)ccc(C2=NNC(=O)CC2C)c1F (stereo not drawn) [Example 46, 6-{2-Fluoro-4-[(1-hydroxycyclopropyl)methoxy]-3-methylphenyl}-5-methyl-4,5-dihydro-2H-pyridazin-3-one] | 3.9 nM |
| CC1CC(=O)NN=C1c1ccc(OCC2(O)CC2)c(Cl)c1F (stereo not drawn) [Example 47, 6-{3-chloro-2-fluoro-4-[(1-hydroxycyclopropyl)methoxy]phenyl}-5-methyl-4,5-dihydro-2H-pyridazin-3-one] | 2.4 nM |
| CC(O)COc1ccc(C2=NNC(=O)CC2C)c(F)c1Br (stereo not drawn) [Example 48, 6-[3-bromo-2-fluoro-4-(2-hydroxypropoxy)phenyl]-5-methyl-4,5-dihydro-2H-pyridazin-3-one] | 0.9 nM |
| CC(O)COc1ccc(C2=NNC(=O)CC2C)c(F)c1F (stereo not drawn) [Example 49, 6-[2,3-Difluoro-4-(2-hydroxypropoxy)phenyl]-5-methyl-4,5-dihydro-2H-pyridazin-3-one] | 2.8 nM |
| CC(O)COc1c(F)cc(C2=NNC(=O)CC2C)cc1Br (stereo not drawn) [Example 50, 6-[3-Bromo-5-fluoro-4-(2-hydroxypropoxy)phenyl]-5-methyl-4,5-dihydro-2H-pyridazin-3-one] | 2.9 nM |
| Cc1cc(C2=NNC(=O)CC2C)cc(C)c1OCC(C)O (stereo not drawn) [Example 51, 6-[4-(2-Hydroxypropoxy)-3,5-dimethylphenyl]-5-methyl-4,5-dihydro-2H-pyridazin-3-one] | 5.5 nM |
| CC(O)COc1c(F)cc(C2=NNC(=O)CC2C)cc1Cl (stereo not drawn) [Example 52, 6-[3-Chloro-5-fluoro-4-(2-hydroxypropoxy)phenyl]-5-methyl-4,5-dihydro-2H-pyridazin-3-one] | 3.8 nM |
| CC(O)COc1c(Cl)cc(C2=NNC(=O)CC2C)cc1Cl (stereo not drawn) [Example 53, 6-[3,5-dichloro-4-(2-hydroxypropoxy)phenyl]-5-methyl-4,5-dihydro-2H-pyridazin-3-one] | 1.9 nM |
| CC(O)COc1ccc(C2=NNC(=O)CC2C)c(F)c1Cl (stereo not drawn) [Example 54, 6-[3-chloro-2-fluoro-4-(2-hydroxypropoxy)phenyl]-5-methyl-4,5-dihydro-2H-pyridazin-3-one] | 0.5 nM |
| Cc1cc(C2=NNC(=O)CC2C)cc(Cl)c1OCC(C)O (stereo not drawn) [Example 55, 6-[3-chloro-4-(2-hydroxypropoxy)-5-methylphenyl]-5-methyl-4,5-dihydro-2H-pyridazin-3-one] | 1.9 nM |
| Cc1cc(C2=NNC(=O)CC2C)cc(F)c1OCC(C)O (stereo not drawn) [Example 56, 6-[3-Fluoro-4-(2-hydroxypropoxy)-5-methylphenyl]-5-methyl-4,5-dihydro-2H-pyridazin-3-one] | 7.6 nM |
| CC(O)COc1c(Cl)cc(C2=NNC(=O)CC2C)cc1Br (stereo not drawn) [Example 57, 6-[3-bromo-5-chloro-4-(2-hydroxypropoxy)phenyl]-5-methyl-4,5-dihydro-2H-pyridazin-3-one] | < 1 nM |
| Cc1c(OCC(C)O)ccc(C2=NNC(=O)CC2C)c1F (stereo not drawn) [Example 58, 6-[2-Fluoro-4-(2-hydroxypropoxy)-3-methylphenyl]-5-methyl-4,5-dihydro-2H-pyridazin-3-one] | 2.8 nM |
| C=Cc1c(OCC(C)O)ccc(C2=NNC(=O)CC2C)c1F (stereo not drawn) [Example 59, 6-[2-fluoro-4-(2-hydroxypropoxy)-3-vinylphenyl]-5-methyl-4,5-dihydro-2H-pyridazin-3-one] | 2.2 nM |
| CCc1c(OCC(C)O)ccc(C2=NNC(=O)CC2C)c1F (stereo not drawn) [Example 60, 6-[3-Ethyl-2-fluoro-4-(2-hydroxypropoxy)phenyl]-5-methyl-4,5-dihydro-2H-pyridazin-3-one] | 4.7 nM |
| CCC(O)COc1ccc(C2=NNC(=O)CC2C)c(F)c1F (stereo not drawn) [Example 61, 6-[2,3-Difluoro-4-(2-hydroxybutoxy)phenyl]-5-methyl-4,5-dihydro-2H-pyridazin-3-one] | 4.7 nM |
| CCC(O)COc1c(F)cc(C2=NNC(=O)CC2C)cc1Cl (stereo not drawn) [Example 62, 6-[3-Chloro-5-fluoro-4-(2-hydroxybutoxy)phenyl]-5-methyl-4,5-dihydro-2H-pyridazin-3-one] | 8.9 nM |
| CCC(O)COc1c(Cl)cc(C2=NNC(=O)CC2C)cc1Cl (stereo not drawn) [Example 63, 6-[3,5-Dichloro-4-(2-hydroxybutoxy)phenyl]-5-methyl-4,5-dihydro-2H-pyridazin-3-one] | 5 nM |

| SMILES | IC50 |
| --- | --- |
| CCC(O)COc1ccc(C2=NNC(=O)CC2C)c(F)c1Cl (stereo not drawn) [Example 64, 6-[3-chloro-2-fluoro-4-(2-hydroxybutoxy)phenyl]-5-methyl-4,5-dihydro-2H-pyridazin-3-one] | 2.1 nM |
| CCC(O)COc1c(C)cc(C2=NNC(=O)CC2C)cc1Cl (stereo not drawn) [Example 65, 6-[3-Chloro-4-(2-hydroxybutoxy)-5-methylphenyl]-5-methyl-4,5-dihydro-2H-pyridazin-3-one] | 4.3 nM |
| CCC(O)COc1c(Cl)cc(C2=NNC(=O)CC2C)cc1Br (stereo not drawn) [Example 66, 6-[3-Bromo-5-chloro-4-(2-hydroxybutoxy)phenyl]-5-methyl-4,5-dihydro-2H-pyridazin-3-one] | 4.1 nM |
| C=Cc1c(OCC(O)CC)ccc(C2=NNC(=O)CC2C)c1F (stereo not drawn) [Example 67, 6-[2-Fluoro-4-(2-hydroxybutoxy)-3-vinylphenyl]-5-methyl-4,5-dihydro-2H-pyridazin-3-one] | 3.6 nM |
| CC1CC(=O)NN=C1c1cc(F)c(OCC(C)(C)CO)c(Br)c1 (stereo not drawn) [Example 69, 6-[3-bromo-5-fluoro-4-(3-hydroxy-2,2-dimethylpropoxy)phenyl]-5-methyl-4,5-dihydro-2H-pyridazin-3-one] | 1.2 nM |
| CC1CC(=O)NN=C1c1ccc(OCC(C)(C)CO)c(Br)c1F (stereo not drawn) [Example 70, 6-[3-Bromo-2-fluoro-4-(3-hydroxy-2,2-dimethylpropoxy)phenyl]-5-methyl-4,5-dihydro-2H-pyridazin-3-one] | 5.3 nM |
| Cc1cc(C2=NNC(=O)CC2C)cc(C)c1OCC(C)(C)CO (stereo not drawn) [Example 71, 6-[4-(3-Hydroxy-2,2-dimethylpropoxy)-3,5-dimethylphenyl]-5-methyl-4,5-dihydro-2H-pyridazin-3-one] | 3.9 nM |
| Cc1cc(C2=NNC(=O)CC2C)cc(Cl)c1OCC(C)(C)CO (stereo not drawn) [Example 72, 6-[3-chloro-4-(3-hydroxy-2,2-dimethylpropoxy)-5-methylphenyl]-5-methyl-4,5-dihydro-2H-pyridazin-3-one] | 0.9 nM |
| Cc1c(OCC(C)O)ccc(C2=NNC(=O)CC2C)c1O (stereo not drawn) [Example 74, 6-[2-hydroxy-4-(2-hydroxypropoxy)-3-methylphenyl]-5-methyl-4,5-dihydro-2H-pyridazin-3-one] | 4.1 nM |
| CC(O)COc1ccc(C2=NNC(=O)CC2C)c(O)c1Cl (stereo not drawn) [Example 75, 6-[3-Chloro-2-hydroxy-4-(2-hydroxypropoxy)phenyl]-5-methyl-4,5-dihydro-2H-pyridazin-3-one] | 3.2 nM |
| CC1CC(=O)NN=C1c1ccc(OC/C=C\CO)c(Cl)c1F (stereo not drawn) [Example 76, 6-{3-chloro-2-fluoro-4-[(Z)-4-hydroxy-2-butenyloxy]phenyl}-5-methyl-4,5-dihydro-2H-pyridazin-3-one] | 2.7 nM |
| Cc1cc(C2=NNC(=O)CC2C)cc(Cl)c1OCCCCO (stereo not drawn) [Example 79, 6-[3-Chloro-4-(4-hydroxybutoxy)-5-methylphenyl]-5-methyl-4,5-dihydro-2H-pyridazin-3-one] | 5.6 nM |
| CC1CC(=O)NN=C1c1cc(F)c(OCCCCO)c(Br)c1 (stereo not drawn) [Example 80, 6-[3-Bromo-5-fluoro-4-(4-hydroxybutoxy)phenyl]-5-methyl-4,5-dihydro-2H-pyridazin-3-one] | 5.1 nM |
| CC1CC(=O)NN=C1c1cc(Cl)c(OCCCCO)c(Cl)c1 (stereo not drawn) [Example 81, 6-[3,5-Dichloro-4-(4-hydroxybutoxy)phenyl]-5-methyl-4,5-dihydro-2H-pyridazin-3-one] | 4.7 nM |
| CC1CC(=O)NN=C1c1ccc(OCCCCO)c(F)c1F (stereo not drawn) [Example 82, 6-[2,3-Difluoro-4-(4-hydroxybutoxy)phenyl]-5-methyl-4,5-dihydro-2H-pyridazin-3-one] | 6 nM |
| Cc1c(OCCCCO)ccc(C2=NNC(=O)CC2C)c1F (stereo not drawn) [Example 83, 6-[2-Fluoro-4-(4-hydroxybutoxy)-3-methylphenyl]-5-methyl-4,5-dihydro-2H-pyridazin-3-one] | 6.6 nM |
| CC1CC(=O)NN=C1c1ccc(OCCCCO)c(Cl)c1F (stereo not drawn) [Example 84, 6-[3-Chloro-2-fluoro-4-(4-hydroxybutoxy)phenyl]-5-methyl-4,5-dihydro-2H-pyridazin-3-one] | 3.3 nM |
| C=Cc1c(OCCCO)ccc(C2=NNC(=O)CC2C)c1F (stereo not drawn) [Example 85, 6-[2-Fluoro-4-(3-hydroxypropoxy)-3-vinylphenyl]-5-methyl-4,5-dihydro-2H-pyridazin-3-one] | 4 nM |
| Cc1cc(C2=NNC(=O)CC2C)cc(Cl)c1OC/C=C\CO (stereo not drawn) [Example 86, 6-{3-Chloro-4-[(Z)-4-hydroxy-2-butenyloxy]-5-methylphenyl}-5-methyl-4,5-dihydro-2H-pyridazin-3-one] | 4.6 nM |
